Data reported in the NIST ThermoML archive (doi:10.1016/j.tca.2015.02.020).

Test: molar heat capacity at constant pressure; xn = mol fraction of the nth substance listed
Conditions: 101 kPa, Small sample (50 mg) DSC

NCCCO [3-amino-1-propanol] + O
Conditions	molar heat capacity at constant pressure [J/K/mol]
125.42 K, Glass, x1 = 0.19	28.29
125.42 K, Glass, x1 = 0.26	32.2
126.01 K, Glass, x1 = 0.68	47.75
126.94 K, Glass, x1 = 0.19	29.15
127.1 K, Glass, x1 = 0.26	32.2
127.56 K, Glass, x1 = 0.16	28.24
127.59 K, Glass, x1 = 0.16	29.05
128.06 K, Glass, x1 = 0.68	51.16
129.29 K, Glass, x1 = 0.19	30.02
130.07 K, Glass, x1 = 0.26	33.19
130.83 K, Glass, x1 = 0.16	29.05
130.83 K, Glass, x1 = 0.68	52.29
131.76 K, Glass, x1 = 0.19	30.6
131.92 K, Glass, x1 = 0.26	33.19
132.24 K, Glass, x1 = 0.16	30.41
132.71 K, Glass, x1 = 0.68	52.86
133.95 K, Glass, x1 = 0.19	31.46
134.1 K, Glass, x1 = 0.16	30.14
134.11 K, Glass, x1 = 0.68	54
134.74 K, Glass, x1 = 0.26	34.17
135.04 K, Glass, x1 = 0.19	31.46
135.2 K, Glass, x1 = 0.26	33.85
136.92 K, Glass, x1 = 0.16	32.04
137.39 K, Glass, x1 = 0.68	54.57
138.63 K, Glass, x1 = 0.19	33.19
139.41 K, Glass, x1 = 0.26	35.49
140.66 K, Glass, x1 = 0.16	31.77
140.66 K, Glass, x1 = 0.68	56.27
141.59 K, Glass, x1 = 0.16	33.94
141.6 K, Glass, x1 = 0.19	33.48
141.75 K, Glass, x1 = 0.26	35.82
142.07 K, Glass, x1 = 0.68	56.27
143.47 K, Glass, x1 = 0.19	34.92
143.95 K, Glass, x1 = 0.16	32.58
143.95 K, Glass, x1 = 0.68	57.98
144.1 K, Glass, x1 = 0.26	36.47
144.88 K, Glass, x1 = 0.19	34.64
145.04 K, Glass, x1 = 0.26	36.8
146.28 K, Glass, x1 = 0.16	36.65
146.75 K, Glass, x1 = 0.68	56.84
148.16 K, Glass, x1 = 0.19	37.23
148.79 K, Glass, x1 = 0.26	39.1
150.53 K, Glass, x1 = 0.16	34.75
150.53 K, Glass, x1 = 0.68	60.25
150.98 K, Glass, x1 = 0.16	40.73
151.45 K, Glass, x1 = 0.68	57.98
151.46 K, Glass, x1 = 0.19	36.94
151.62 K, Glass, x1 = 0.26	39.1
152.86 K, Glass, x1 = 0.19	40.99
153.81 K, Glass, x1 = 0.16	36.65
153.82 K, Glass, x1 = 0.68	61.96
154.75 K, Glass, x1 = 0.19	38.39
154.91 K, Glass, x1 = 0.26	40.42
156.15 K, Glass, x1 = 0.68	60.25
160.4 K, Glass, x1 = 0.68	65.37
161.49 K, Glass, x1 = 0.26	45.02
163.69 K, Glass, x1 = 0.68	67.64
165.08 K, Liquid, x1 = 0.16	65.7
166.96 K, Liquid, x1 = 0.19	68.12
169.79 K, Liquid, x1 = 0.16	66.79
170.28 K, Liquid, x1 = 0.16	66.25
171.23 K, Liquid, x1 = 0.19	71.87
171.67 K, Liquid, x1 = 0.19	69.27
173.58 K, Liquid, x1 = 0.16	66.79
174.5 K, Liquid, x1 = 0.16	67.06
174.5 K, Liquid, x1 = 0.26	77.55
174.53 K, Liquid, x1 = 0.19	71.87
174.68 K, Liquid, x1 = 0.26	82.48
176.39 K, Liquid, x1 = 0.19	69.56
179.21 K, Liquid, x1 = 0.16	67.6
179.21 K, Liquid, x1 = 0.26	77.88
179.69 K, Liquid, x1 = 0.68	127.32
180.18 K, Liquid, x1 = 0.16	67.88
180.19 K, Liquid, x1 = 0.68	138.69
181.09 K, Liquid, x1 = 0.19	69.85
181.12 K, Liquid, x1 = 0.19	72.74
181.28 K, Liquid, x1 = 0.26	82.81
183.49 K, Liquid, x1 = 0.16	68.69
183.49 K, Liquid, x1 = 0.68	138.69
183.93 K, Liquid, x1 = 0.16	68.42
183.93 K, Liquid, x1 = 0.26	78.21
184.41 K, Liquid, x1 = 0.68	127.32
184.43 K, Liquid, x1 = 0.19	73.31
184.59 K, Liquid, x1 = 0.26	83.14
185.82 K, Liquid, x1 = 0.19	70.43
188.65 K, Liquid, x1 = 0.16	69.5
188.65 K, Liquid, x1 = 0.26	78.86
189.12 K, Liquid, x1 = 0.68	127.32
190.09 K, Liquid, x1 = 0.16	70.05
190.1 K, Liquid, x1 = 0.68	139.26
190.54 K, Liquid, x1 = 0.19	71.29
191.04 K, Liquid, x1 = 0.19	75.04
191.2 K, Liquid, x1 = 0.26	84.12
193.38 K, Liquid, x1 = 0.16	70.32
193.38 K, Liquid, x1 = 0.26	79.52
193.4 K, Liquid, x1 = 0.16	70.05
193.41 K, Liquid, x1 = 0.68	139.83
193.85 K, Liquid, x1 = 0.68	127.32
194.35 K, Liquid, x1 = 0.19	75.62
194.51 K, Liquid, x1 = 0.26	84.78
195.27 K, Liquid, x1 = 0.19	71.87
198.1 K, Liquid, x1 = 0.16	71.41
198.1 K, Liquid, x1 = 0.26	79.85
198.58 K, Liquid, x1 = 0.68	127.89
199.99 K, Liquid, x1 = 0.19	73.02
200.03 K, Liquid, x1 = 0.68	140.96
200.98 K, Liquid, x1 = 0.19	77.06
201.13 K, Liquid, x1 = 0.26	86.42
202.83 K, Liquid, x1 = 0.16	72.49
202.84 K, Liquid, x1 = 0.26	80.84
203.31 K, Liquid, x1 = 0.68	129.03
203.35 K, Liquid, x1 = 0.68	141.53
204.28 K, Liquid, x1 = 0.19	77.64
204.44 K, Liquid, x1 = 0.26	86.75
204.72 K, Liquid, x1 = 0.19	73.89
207.56 K, Liquid, x1 = 0.16	73.85
207.57 K, Liquid, x1 = 0.26	81.82
208.04 K, Liquid, x1 = 0.68	129.03
209.45 K, Liquid, x1 = 0.19	75.33
209.97 K, Liquid, x1 = 0.68	142.1
210.91 K, Liquid, x1 = 0.19	78.22
211.07 K, Liquid, x1 = 0.26	88.06
212.29 K, Liquid, x1 = 0.16	75.21
212.29 K, Liquid, x1 = 0.26	82.81
212.78 K, Liquid, x1 = 0.68	130.16
213.28 K, Liquid, x1 = 0.68	142.67
214.19 K, Liquid, x1 = 0.19	76.49
214.23 K, Liquid, x1 = 0.19	79.09
214.38 K, Liquid, x1 = 0.26	89.05
217.03 K, Liquid, x1 = 0.16	76.56
217.04 K, Liquid, x1 = 0.26	84.12
217.51 K, Liquid, x1 = 0.68	131.3
218.93 K, Liquid, x1 = 0.19	78.22
220.86 K, Liquid, x1 = 0.19	81.11
221.02 K, Liquid, x1 = 0.26	90.36
221.77 K, Liquid, x1 = 0.16	78.19
221.77 K, Liquid, x1 = 0.26	85.11
222.25 K, Liquid, x1 = 0.68	133
223.67 K, Liquid, x1 = 0.19	79.95
224.18 K, Liquid, x1 = 0.19	83.13
224.35 K, Liquid, x1 = 0.26	91.35
226.51 K, Liquid, x1 = 0.16	79.55
226.51 K, Liquid, x1 = 0.26	86.42
226.99 K, Liquid, x1 = 0.68	133.57
228.4 K, Liquid, x1 = 0.19	81.39
230.81 K, Liquid, x1 = 0.19	87.46
230.97 K, Liquid, x1 = 0.26	93.32
231.25 K, Liquid, x1 = 0.16	81.18
231.25 K, Liquid, x1 = 0.26	88.06
231.73 K, Liquid, x1 = 0.68	134.71
233.15 K, Liquid, x1 = 0.19	82.84
234.29 K, Liquid, x1 = 0.26	94.31
235.99 K, Liquid, x1 = 0.16	82.54
235.99 K, Liquid, x1 = 0.26	89.71
236.47 K, Liquid, x1 = 0.68	135.85
237.88 K, Liquid, x1 = 0.19	84.28
240.73 K, Liquid, x1 = 0.16	83.89
240.73 K, Liquid, x1 = 0.26	91.02
240.77 K, Liquid, x1 = 0.19	89.19
240.93 K, Liquid, x1 = 0.26	96.61
241.21 K, Liquid, x1 = 0.68	137.55
242.63 K, Liquid, x1 = 0.19	85.72
244.1 K, Liquid, x1 = 0.19	90.63
244.25 K, Liquid, x1 = 0.26	97.92
245.48 K, Liquid, x1 = 0.16	85.52
245.48 K, Liquid, x1 = 0.26	92.66
245.96 K, Liquid, x1 = 0.68	138.69
247.38 K, Liquid, x1 = 0.19	87.17
249.79 K, Liquid, x1 = 0.16	90.14
250.23 K, Liquid, x1 = 0.16	86.88
250.23 K, Liquid, x1 = 0.26	94.31
250.71 K, Liquid, x1 = 0.68	140.39
250.75 K, Liquid, x1 = 0.19	93.23
250.9 K, Liquid, x1 = 0.26	100.22
252.13 K, Liquid, x1 = 0.19	88.61
253.11 K, Liquid, x1 = 0.16	91.5
254.07 K, Liquid, x1 = 0.19	94.09
254.23 K, Liquid, x1 = 0.26	101.21
254.97 K, Liquid, x1 = 0.16	88.24
254.98 K, Liquid, x1 = 0.26	95.95
255.46 K, Liquid, x1 = 0.68	142.1
256.88 K, Liquid, x1 = 0.19	90.05
259.73 K, Liquid, x1 = 0.16	89.32
259.73 K, Liquid, x1 = 0.26	97.59
259.77 K, Liquid, x1 = 0.16	93.94
260.2 K, Liquid, x1 = 0.68	143.8
260.72 K, Liquid, x1 = 0.19	96.4
260.88 K, Liquid, x1 = 0.26	103.84
261.62 K, Liquid, x1 = 0.19	91.5
263.1 K, Liquid, x1 = 0.16	95.03
264.05 K, Liquid, x1 = 0.19	97.56
264.21 K, Liquid, x1 = 0.26	104.82
264.47 K, Liquid, x1 = 0.16	90.68
264.48 K, Liquid, x1 = 0.26	99.24
264.96 K, Liquid, x1 = 0.68	146.08
266.1 K, Liquid, x1 = 0.16	96.11
266.1 K, Liquid, x1 = 0.19	98.13
266.1 K, Liquid, x1 = 0.26	105.48
266.38 K, Liquid, x1 = 0.19	92.94
269.23 K, Liquid, x1 = 0.16	91.77
269.23 K, Liquid, x1 = 0.26	100.55
269.72 K, Liquid, x1 = 0.68	147.21
269.76 K, Liquid, x1 = 0.16	97.2
269.76 K, Liquid, x1 = 0.68	158.01
270.7 K, Liquid, x1 = 0.19	99.29
270.87 K, Liquid, x1 = 0.26	106.79
271.14 K, Liquid, x1 = 0.19	94.38
273.09 K, Liquid, x1 = 0.16	98.01
273.1 K, Liquid, x1 = 0.68	156.88
274.02 K, Liquid, x1 = 0.16	92.85
274.02 K, Liquid, x1 = 0.26	102.19
274.07 K, Liquid, x1 = 0.19	100.16
274.24 K, Liquid, x1 = 0.26	107.45
274.52 K, Liquid, x1 = 0.68	149.49
278.94 K, Liquid, x1 = 0.16	94.21
278.94 K, Liquid, x1 = 0.19	96.4
278.94 K, Liquid, x1 = 0.26	103.51
279.44 K, Liquid, x1 = 0.68	151.19
279.97 K, Liquid, x1 = 0.16	99.1
279.98 K, Liquid, x1 = 0.68	157.45
280.95 K, Liquid, x1 = 0.19	101.02
281.12 K, Liquid, x1 = 0.26	108.77
283.41 K, Liquid, x1 = 0.16	98.83
283.42 K, Liquid, x1 = 0.68	156.88
283.84 K, Liquid, x1 = 0.16	94.75
283.85 K, Liquid, x1 = 0.19	97.27
283.85 K, Liquid, x1 = 0.26	104.82
284.35 K, Liquid, x1 = 0.68	151.76
284.4 K, Liquid, x1 = 0.19	101.02
284.56 K, Liquid, x1 = 0.26	108.77
